Assay results as given in patent US20030087963A1, “Methods of preparing and using 2-hydroxy derivatives of sibutramine and its metabolites” (priority 2001, published 2003).
Where two headings read alike, the source gives them in different places.

Key:
[1] = molecular target: nonselective muscarinic receptor; assay: Binding at the nonselective muscarinic receptor from rat cerebral cortex
Experimental: (§1) The 2-hydroxy derivatives of the sibutramine metabolites N-desmethyl and N-didesmethylsibutramine (DMS and DDMS, respectively) were tested for their inhibition of functional uptake of serotonin (5-HT), norepinephrine (NE), or dopamine (DA), into synaptosomes prepared from rat whole brain, hypothalamus, or corpora striata, respectively, using methods known in the art. In addition, binding was determined at the nonselective muscarinic receptor and the […] from rat cerebral cortex and rat adipose tissue, respectively.
(§2) IC50 values (concentration inhibiting control activity by 50 percent) were then determined by nonlinear regression analysis of the inhibition curves and tabulated below.

[2] = molecular target: T1, functional uptake of norepinephrine (NE) (Rattus norvegicus, UniProt Q63380); assay: Inhibition of functional uptake of norepinephrine (NE) into synaptosomes from rat hypothalamus; type: biochemical
T1 construct: synaptosomes prepared from rat whole brain, hypothalamus, or corpora striata, respectively; from tissue; host or cells: rat hypothalamus synaptosomes
Experimental: as §1, §2

[3] = molecular target: T2, functional uptake of dopamine (DA) (Rattus norvegicus, UniProt P23977); assay: Inhibition of functional uptake of dopamine (DA) into synaptosomes from rat corpora striata; type: biochemical
T2 construct: synaptosomes prepared from rat whole brain, hypothalamus, or corpora striata, respectively; from tissue; host or cells: rat corpora striata synaptosomes
Experimental: as §1, §2

[4] = molecular target: T3, functional uptake of serotonin (5-HT) (Rattus norvegicus, UniProt P31652); assay: Inhibition of functional uptake of serotonin (5-HT) into synaptosomes from rat whole brain; type: biochemical
T3 construct: synaptosomes prepared from rat whole brain, hypothalamus, or corpora striata, respectively; from tissue; host or cells: rat whole brain synaptosomes
Experimental: as §1, §2

[5] = synaptosomes from rat hypothalamus, read-out: IC50, NE functional uptake

T3 sequence (P31652 whole entry): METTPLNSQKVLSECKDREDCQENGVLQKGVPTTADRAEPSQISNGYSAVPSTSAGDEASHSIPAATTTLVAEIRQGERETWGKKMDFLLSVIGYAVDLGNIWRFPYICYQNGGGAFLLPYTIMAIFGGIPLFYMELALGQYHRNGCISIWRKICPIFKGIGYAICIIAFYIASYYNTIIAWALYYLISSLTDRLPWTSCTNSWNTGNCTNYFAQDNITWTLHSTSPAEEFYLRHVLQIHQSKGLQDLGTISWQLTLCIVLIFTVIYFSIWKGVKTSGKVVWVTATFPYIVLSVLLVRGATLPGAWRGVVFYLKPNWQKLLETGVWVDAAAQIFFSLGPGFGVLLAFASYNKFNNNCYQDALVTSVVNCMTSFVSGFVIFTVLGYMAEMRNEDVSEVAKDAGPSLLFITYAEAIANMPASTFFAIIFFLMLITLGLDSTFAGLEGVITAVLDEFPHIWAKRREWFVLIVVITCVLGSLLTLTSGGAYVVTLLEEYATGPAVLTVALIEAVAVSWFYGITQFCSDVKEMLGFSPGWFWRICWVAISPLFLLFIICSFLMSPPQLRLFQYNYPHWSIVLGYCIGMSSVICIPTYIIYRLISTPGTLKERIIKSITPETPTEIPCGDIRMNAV
T1 sequence (Q63380 1-617): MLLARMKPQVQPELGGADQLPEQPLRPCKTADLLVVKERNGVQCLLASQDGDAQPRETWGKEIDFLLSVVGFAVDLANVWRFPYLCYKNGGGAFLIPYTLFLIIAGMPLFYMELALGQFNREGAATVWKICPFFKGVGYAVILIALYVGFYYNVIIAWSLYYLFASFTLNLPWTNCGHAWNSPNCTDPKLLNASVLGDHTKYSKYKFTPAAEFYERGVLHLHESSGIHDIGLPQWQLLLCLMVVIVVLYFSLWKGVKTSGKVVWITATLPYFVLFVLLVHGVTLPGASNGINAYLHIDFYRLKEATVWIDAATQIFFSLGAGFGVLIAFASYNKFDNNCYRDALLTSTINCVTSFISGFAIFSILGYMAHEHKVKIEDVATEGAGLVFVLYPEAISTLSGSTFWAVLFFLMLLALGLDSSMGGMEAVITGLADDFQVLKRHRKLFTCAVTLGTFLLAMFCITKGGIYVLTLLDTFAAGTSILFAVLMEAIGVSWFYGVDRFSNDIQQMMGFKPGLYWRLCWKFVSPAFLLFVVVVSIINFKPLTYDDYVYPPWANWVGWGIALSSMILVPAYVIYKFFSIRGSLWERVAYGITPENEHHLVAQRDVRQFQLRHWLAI
T2 sequence (P23977 whole entry): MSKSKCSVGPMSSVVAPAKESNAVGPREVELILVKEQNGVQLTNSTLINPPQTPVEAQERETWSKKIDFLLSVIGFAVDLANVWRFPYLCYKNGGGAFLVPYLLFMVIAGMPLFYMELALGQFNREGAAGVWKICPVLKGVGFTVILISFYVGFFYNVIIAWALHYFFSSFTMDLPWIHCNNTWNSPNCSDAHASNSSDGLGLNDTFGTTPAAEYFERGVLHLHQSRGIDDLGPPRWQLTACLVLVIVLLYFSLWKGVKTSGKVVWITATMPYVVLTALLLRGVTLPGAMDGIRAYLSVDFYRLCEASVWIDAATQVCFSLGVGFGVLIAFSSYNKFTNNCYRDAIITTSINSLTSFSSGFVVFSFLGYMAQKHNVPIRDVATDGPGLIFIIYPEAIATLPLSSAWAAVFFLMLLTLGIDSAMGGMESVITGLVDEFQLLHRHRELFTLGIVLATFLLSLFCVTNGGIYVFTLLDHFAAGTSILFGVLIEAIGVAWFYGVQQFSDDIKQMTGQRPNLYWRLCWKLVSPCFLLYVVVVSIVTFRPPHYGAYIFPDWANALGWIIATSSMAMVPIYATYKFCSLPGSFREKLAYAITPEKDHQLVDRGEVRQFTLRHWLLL

Row | SMILES | IC50 [1] [nM] | IC50 [2, 5] [nM] | IC50 [3] [nM] | IC50 [4] [nM] | IC50 [2] [nM]
1 | CN1[C@@H]2CC[C@H]1C[C@@H](OC(=O)C(CO)c1ccccc1)C2 (stereo partly drawn) [Atropine, reference compound] | 0.38 |  |  |  | 
2 | CC(C)(O)C[C@@H](N)C1(c2ccc(Cl)cc2)CCC1 [2-(R)-OH-DDMS, (R)-(−)-4-amino-[1-(4-chlorophenyl)cyclobutyl]-2-methyl-butan-2-ol] |  | 6.2 | 18 | 7.2 | 
3 | CN[C@H](CC(C)(C)O)C1(c2ccc(Cl)cc2)CCC1 [2-(R)-OH-DMS, (R)-(+)-4-[1-(4-Chloro-phenyl)-cyclobutyl]-2-methyl-4-methylamino-butan-2-ol] | 8970 |  | 48 | 22 | 23
4 | CC(C)(O)C[C@H](N)C1(c2ccc(Cl)cc2)CCC1 [2-(S)-OH-DDMS, (S)-(+)-4-amino-[1-(4-chlorophenyl)cyclobutyl]-2-methyl-butan-2-ol] |  | 71 | 59 | 670 | 
5 | CN[C@@H](CC(C)(C)O)C1(c2ccc(Cl)cc2)CCC1 [2-(S)-OH-DMS] | 4480 |  | 370 | 5400 | 310
